From paper doi:10.1101/2025.07.30.667614, “Steric control of signaling bias in the immunometabolic receptor GPR84” (bioRxiv, 2025)
Read-outs that look alike come from different tables or passages of the source.

What was measured:
[1] = biological target: T1, wild type GPR84 (Homo sapiens, UniProt Q9NQS5); assay: pThr263/pThr264 immunoblot of immunoprecipitated GPR84-eYFP; type: cell-based; settings: 1 μM
T1 construct: expressed in transfected cells
Description: eYFP-linked receptor constructs were immunoprecipitated from 200 μl cell lysates using GFP-Trap® agarose beads (Proteintech) according to manufacturer’s instructions. Immunocomplexes were washed three times in washing buffer, resuspended in 100 μl 2 × SDS-PAGE sample buffer and incubated at 60 °C for 10 min. Following centrifugation at 2500g for 5 min, 20 μl of immunoprecipitated proteins was resolved by SDS-PAGE on 4% to 12% BisTris gels. After separation, the proteins were transferred electrophoretically onto nitrocellulose membrane, which was then blocked using 5% bovine serum albumin (BSA) in Tris-buffered saline (TBS, 50 mM Tris-Cl, 150 mM NaCl, pH 7.6) for 1 h at room temperature on an orbital shaker. The membrane was then incubated with appropriate primary antibody in 5% BSA in TBS supplemented with 0.1% Tween (TBS-T) overnight at 4 °C. Anti-pThr^263/pThr^264 antiserum was diluted 1:2000 and anti-GFP was diluted 1:10,000. Subsequently, the membrane was washed (3 × 10 min with TBS-T) and incubated for 2 h with anti-rabbit secondary antibody diluted 1:10,000 in 5% BSA in TBS-T. After washing (3 × 10 min with TBS-T), proteins were detected using an Odyssey imaging system (Licor) according to the manufacturer’s instructions.

[2] = biological target: T2, GPR84 L336A (GPR84-Gi2α fusion protein) (Homo sapiens, UniProt Q9NQS5, L336A); assay: [35S]GTPγS binding assay; type: biochemical
T2 construct: FLAG (N); Gαi2-Cys352Ile (fusion partner) (C); expressed in transfected cells
T2 sequence (Q9NQS5 whole entry L336A, the tested form may be a part): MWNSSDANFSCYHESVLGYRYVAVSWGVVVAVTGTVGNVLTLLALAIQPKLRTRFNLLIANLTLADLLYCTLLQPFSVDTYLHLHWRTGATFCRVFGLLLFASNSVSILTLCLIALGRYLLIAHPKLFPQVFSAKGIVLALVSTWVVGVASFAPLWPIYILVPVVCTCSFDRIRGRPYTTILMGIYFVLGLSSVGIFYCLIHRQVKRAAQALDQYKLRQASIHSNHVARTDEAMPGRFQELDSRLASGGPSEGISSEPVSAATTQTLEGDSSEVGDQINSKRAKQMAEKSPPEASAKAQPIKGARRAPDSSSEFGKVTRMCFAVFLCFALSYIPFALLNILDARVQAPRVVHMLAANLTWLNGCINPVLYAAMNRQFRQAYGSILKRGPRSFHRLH
Description: (§1) Membranes were generated from Flp-In™ T-REx™ 293 cells following 100 ng/ml doxycycline treatment to induce receptor expression. Cells were washed with ice-cold phosphate-buffered saline (PBS), removed from dishes by scraping and centrifuged at 1,800 x g for 5 min at 4 °C. Pellets were resuspended in TE buffer (10mM Tris-HCl, 0.1 mM EDTA; pH 7.4) containing a protease inhibitor mixture and homogenized with a 5 ml hand-held homogenizer. Samples were centrifuged at 450 x g for 5 min at 4 °C and the supernatant was further centrifuged at 90,000 x g for 45 min at 4 °C. The resulting pellet was resuspended in TE buffer and protein content was assessed using a BCA protein assay kit.
(§2) Prepared membrane protein (3 μg per well) was incubated in assay buffer (20 mM HEPES, 5 mM MgCl2, 160 mM NaCl, 0.05 % fatty-acid-free bovine serum albumin; pH 7.4) containing the indicated ligand concentrations. The reaction was initiated by addition of [^35S]GTPγS (100 nCi per reaction) with 1 μM GDP, and incubated at 30 °C for 60 min. The reaction was terminated by rapid vacuum filtration through GF/C glassfibre filter-bottom 96-well microplates using a UniFilter FilterMate Harvester (PerkinElmer). Unbound radioligand was removed from filters by three washes with ice-cold PBS. Ultima Gold™ XR was added to dried filters, and [^35S]GTPγS binding quantified by liquid scintillation spectroscopy.

[3] = biological target: T3, GPR84 Y69A (GPR84-Gi2α fusion protein) (Homo sapiens, UniProt Q9NQS5, Y69A); assay: [35S]GTPγS binding assay; type: biochemical; settings: for Emax: read-out: Emax ± SEM
T3 construct: FLAG (N); Gαi2-Cys352Ile (fusion partner) (C); expressed in transfected cells
T3 sequence (Q9NQS5 whole entry Y69A, the tested form may be a part): as the sequence (Q9NQS5 whole entry L336A, the tested form may be a part) above, with Y69A, A336L counted along it
Description: as §1, §2

[4] = biological target: T4, GPR84 F187A (GPR84-Gi2α fusion protein) (Homo sapiens, UniProt Q9NQS5, F187A); assay: [35S]GTPγS binding assay; type: biochemical
T4 construct: FLAG (N); Gαi2-Cys352Ile (fusion partner) (C); expressed in transfected cells
T4 sequence (Q9NQS5 whole entry F187A, the tested form may be a part): as the sequence (Q9NQS5 whole entry L336A, the tested form may be a part) above, with F187A, A336L counted along it
Description: as §1, §2

[5] = biological target: T5, GPR84 N104A (GPR84-Gi2α fusion protein) (Homo sapiens, UniProt Q9NQS5, N104A); assay: [35S]GTPγS binding assay; type: biochemical; settings: for fold reduction in potency compared to wild type: Asn104Ala; for Emax: read-out: Emax ± SEM
T5 construct: FLAG (N); Gαi2-Cys352Ile (fusion partner) (C); expressed in transfected cells
T5 sequence (Q9NQS5 whole entry N104A, the tested form may be a part): as the sequence (Q9NQS5 whole entry L336A, the tested form may be a part) above, with N104A, A336L counted along it
Description: as §1, §2

[6] = biological target: GPR84-WT (GPR84-Gi2α fusion protein) (Homo sapiens, UniProt Q9NQS5); assay: [35S]GTPγS binding assay; type: biochemical; settings: for Emax: read-out: Emax ± SEM
Sequence of GPR84-WT (GPR84-Gi2α fusion protein) (Q9NQS5 whole entry, the tested form may be a part): as the sequence (Q9NQS5 whole entry L336A, the tested form may be a part) above, with A336L counted along it
Sequence of GPR84-WT (GPR84-Gi2α fusion protein) (P04899 with tags, fused parts or gaps C352I partner): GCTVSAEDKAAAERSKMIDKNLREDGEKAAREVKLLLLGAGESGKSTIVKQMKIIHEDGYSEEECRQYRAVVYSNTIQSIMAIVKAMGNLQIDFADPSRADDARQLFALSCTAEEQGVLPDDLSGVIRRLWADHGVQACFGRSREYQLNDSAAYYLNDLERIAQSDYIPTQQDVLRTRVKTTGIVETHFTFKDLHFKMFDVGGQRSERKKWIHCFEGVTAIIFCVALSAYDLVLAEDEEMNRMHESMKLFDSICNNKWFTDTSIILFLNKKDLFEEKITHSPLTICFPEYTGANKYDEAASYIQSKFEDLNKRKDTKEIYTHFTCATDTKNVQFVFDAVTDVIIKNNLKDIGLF
Description: as §1, §2

[7] = biological target: T6, GPR84 T167A (GPR84-Gi2α fusion protein) (Homo sapiens, UniProt Q9NQS5, T167A); assay: [35S]GTPγS binding assay; type: biochemical; settings: for fold reduction in potency compared to wild type: Thr167Ala; for Emax: read-out: Emax ± SEM
T6 construct: FLAG (N); Gαi2-Cys352Ile (fusion partner) (C); expressed in transfected cells
T6 sequence (Q9NQS5 whole entry T167A, the tested form may be a part): as the sequence (Q9NQS5 whole entry L336A, the tested form may be a part) above, with T167A, A336L counted along it
Description: as §1, §2

[8] = biological target: T7, GPR84 Y332A (Homo sapiens, UniProt Q9NQS5, Y332A); assay: [35S]GTPγS binding assay; type: biochemical; settings: for Emax: read-out: Emax ± SEM
T7 construct: FLAG (N); Gαi2-Cys352Ile (fusion partner) (C); expressed in transfected cells
T7 sequence (Q9NQS5 whole entry Y332A, the tested form may be a part): as the sequence (Q9NQS5 whole entry L336A, the tested form may be a part) above, with Y332A, A336L counted along it
Description: as §1, §2

[9] = biological target: T8, GPR84 Y81A (GPR84-Gi2α fusion protein) (Homo sapiens, UniProt Q9NQS5, Y81A); assay: [35S]GTPγS binding assay; type: biochemical; settings: for fold reduced potency compared to wild type: Tyr81Ala; for Emax: read-out: Emax ± SEM
T8 construct: FLAG (N); Gαi2-Cys352Ile (fusion partner) (C); expressed in transfected cells
T8 sequence (Q9NQS5 whole entry Y81A, the tested form may be a part): as the sequence (Q9NQS5 whole entry L336A, the tested form may be a part) above, with Y81A, A336L counted along it
Description: as §1, §2

[10] = biological target: T9, GPR84 S169A (GPR84-Gi2α fusion protein) (Homo sapiens, UniProt Q9NQS5, S169A); assay: [35S]GTPγS binding assay; type: biochemical; settings: for fold reduced potency compared to wild type: Ser169Ala; for Emax: read-out: Emax ± SEM
T9 construct: FLAG (N); Gαi2-Cys352Ile (fusion partner) (C); expressed in transfected cells
T9 sequence (Q9NQS5 whole entry S169A, the tested form may be a part): as the sequence (Q9NQS5 whole entry L336A, the tested form may be a part) above, with S169A, A336L counted along it
Description: as §1, §2

[11] = biological target: T10, GPR84 Y332F (Homo sapiens, UniProt Q9NQS5, Y332F); assay: [35S]GTPγS binding assay; type: biochemical; settings: for Emax: read-out: Emax ± SEM
T10 construct: FLAG (N); Gαi2-Cys352Ile (fusion partner) (C); expressed in transfected cells
T10 sequence (Q9NQS5 whole entry Y332F, the tested form may be a part): as the sequence (Q9NQS5 whole entry L336A, the tested form may be a part) above, with Y332F, A336L counted along it
Description: as §1, §2

[12] = biological target: T11, GPR84 W360A (GPR84-Gi2α fusion protein) (Homo sapiens, UniProt Q9NQS5, W360A); assay: [35S]GTPγS binding assay; type: biochemical; settings: for fold reduced potency compared to wild type: Trp360Ala; for Emax: read-out: Emax ± SEM
T11 construct: FLAG (N); Gαi2-Cys352Ile (fusion partner) (C); expressed in transfected cells
T11 sequence (Q9NQS5 whole entry W360A, the tested form may be a part): as the sequence (Q9NQS5 whole entry L336A, the tested form may be a part) above, with A336L, W360A counted along it
Description: as §1, §2

[13] = biological target: T12, GPR84 N362S (Homo sapiens, UniProt Q9NQS5, N362S); assay: [35S]GTPγS binding assay; type: biochemical; settings: for Emax: read-out: Emax ± SEM
T12 construct: FLAG (N); Gαi2-Cys352Ile (fusion partner) (C); expressed in transfected cells
T12 sequence (Q9NQS5 whole entry N362S, the tested form may be a part): as the sequence (Q9NQS5 whole entry L336A, the tested form may be a part) above, with A336L, N362S counted along it
Description: as §1, §2

[14] = L336A, read-out: pEC50 ± SEM (converted)
[15] = F187A, read-out: pEC50 ± SEM (converted)

T1 sequence (Q9NQS5 whole entry): as the sequence (Q9NQS5 whole entry L336A, the tested form may be a part) above, with A336L counted along it

| SMILES | phosphorylation of Thr263 and Thr264 (immunoblot) [1] | EC50 [2, 14] | EC50 ([3]; [35S]GTPγS, Y69A) | EC50 [4, 15] | fold reduction in potency compared to wild type ([5]; [35S]GTPγS) | EC50 ([5]; [35S]GTPγS, N104A) | EC50 ([7]; [35S]GTPγS, T167A) | fold reduction in potency compared to wild type ([7]; [35S]GTPγS) | EC50 ([8]; [35S]GTPγS, Y332A) | fold reduced potency compared to wild type ([9]; [35S]GTPγS) | EC50 ([9]; [35S]GTPγS, Y81A) | EC50 ([10]; [35S]GTPγS, S169A) | fold reduced potency compared to wild type ([10]; [35S]GTPγS) | EC50 ([11]; [35S]GTPγS, Y332F) | fold reduced potency compared to wild type ([12]; [35S]GTPγS) | EC50 ([12]; [35S]GTPγS, W360A) | EC50 ([13]; [35S]GTPγS, N362S) | further results |
| --- | --- | --- | --- | --- | --- | --- | --- | --- | --- | --- | --- | --- | --- | --- | --- | --- | --- | --- |
| [O-][n+]1cc(O)cc(CCc2ccc(Cl)c(C(F)(F)F)c2)c1 [OX04529] | ineffective | 0.0692 nM | 4.57 nM | 0.102 nM | 5 fold | 3.98 nM | 17.8 nM | greater than 10 fold | 0.347 nM | ~10 fold | 21.4 nM | 417 nM | ~300 fold | 2.57 nM | ~10 fold | 8.71 nM | 16.6 nM | fold greater potency than at wild type ([2]; Leu336Ala): more than 10 fold; EC50 ([2]; Leu336Ala, read-out: EC50): ~0.1 nM; Emax [3]: 94 ± 9%; fold greater potency than at wild type ([4]; Phe187Ala): more than 10 fold; EC50 ([4]; Phe187Ala, read-out: EC50): ~0.1 nM; Emax [5]: 68 ± 8%; EC50 ([6]; pEC50 ± SEM, [35S]GTPγS, GPR84-WT, Extended Data Table 3): 1.26 nM; EC50 ([6]; pEC50 ± SEM, [35S]GTPγS, GPR84-WT, Extended Data Tables 1 and 5): 1.17 nM; Emax [6]: 119 ± 13%; Emax [7]: 82 ± 10%; Emax [8]: 50 ± 12%; Emax [9]: 85 ± 4%; Emax [10]: 30 ± 2%; Emax [11]: 134 ± 12%; Emax [12]: 75 ± 10%; Emax [13]: 126 ± 30% |
| Cc1cc(CCCc2cc(O)c[n+]([O-])c2)ccc1Cl [OX04954] | promoted phosphorylation | 0.0427 nM | 5.13 nM | 0.107 nM | ~10 fold | 11.7 nM | 15.1 nM | ~10 fold | 0.427 nM | ~10 fold | 16.2 nM | 380 nM | more than 1000 fold | 4.17 nM | ~10 fold | 13.5 nM | 24 nM | Emax ([3]; [35S]GTPγS, Y69A): 106 ± 4%; Emax ([5]; [35S]GTPγS, N104A): 130 ± 20%; EC50 ([6]; [35S]GTPγS, GPR84-WT, Extended Data Table 3, read-out: pEC50 ± SEM (converted)): 0.661 nM; Emax ([6]; [35S]GTPγS, GPR84-WT, Extended Data Tables 1 and 5): 129 ± 12%; EC50 ([6]; [35S]GTPγS, GPR84-WT, Extended Data Tables 1 and 5, read-out: pEC50 ± SEM (converted)): 0.661 nM; Emax ([7]; [35S]GTPγS, T167A): 129 ± 15%; Emax ([8]; [35S]GTPγS, Y332A): 60 ± 11%; Emax ([9]; [35S]GTPγS, Y81A): 133 ± 18%; Emax ([10]; [35S]GTPγS, S169A): 47 ± 11%; Emax ([11]; [35S]GTPγS, Y332F): 151 ± 10%; Emax ([12]; [35S]GTPγS, W360A): 75 ± 8%; Emax ([13]; [35S]GTPγS, N362S): 124 ± 19% |
